# Reference: ChEMBL document CHEMBL3044623, “Feeding cessation effects of chlorantraniliprole, a new anthranilic diamide insecticide, in comparison with several insecticides in distinct chemical classes and mode-of-action groups” (2009)
# Columns and labels:
# Assay type in all cases: functional
# Plutella xylostella [1] = assay: Antifeedant activity against third-instar larval stage of Plutella xylostella (diamondback moth) infested compound-treated leaf assessed as time required to stop feeding at 3341 mg a.i/L after 48 hr by leaf disk assay (reference value: > 2880 min)
# Helicoverpa zea [2] = assay: Antifeedant activity against third-instar larval stage of Helicoverpa zea (corn earworm) infested compound-treated leaf assessed as time required to stop feeding at 3341 mg a.i/L after 48 hr by leaf disk assay (reference value: > 2880 min)
# Spodoptera exigua [3] = assay: Antifeedant activity against third-instar larval stage of Spodoptera exigua infested compound-treated leaf assessed as reduction in feeding damage at 3341 mg a.i/L after 48 hr by leaf disk assay relative to untreated control; parameters: scale not given: the % may be the effect or the level left
# Spodoptera exigua [4] = assay: Antifeedant activity against third-instar larval stage of Spodoptera exigua infested compound-treated leaf assessed as time required to stop feeding at 3341 mg a.i/L after 48 hr by leaf disk assay (reference value: > 2880 min)
# Helicoverpa zea [5] = assay: Antifeedant activity against third-instar larval stage of Helicoverpa zea (corn earworm) infested compound-treated leaf assessed as reduction in feeding damage at 3341 mg a.i/L after 48 hr by leaf disk assay relative to untreated control; parameters: scale not given: the % may be the effect or the level left
# Trichoplusia ni [6] = assay: Antifeedant activity against third-instar larval stage of Trichoplusia ni (cabbage looper) infested compound-treated leaf assessed as time required to stop feeding at 3341 mg a.i/L after 48 hr by leaf disk assay (reference value: > 2880 min)
# Trichoplusia ni [7] = assay: Antifeedant activity against third-instar larval stage of Trichoplusia ni (cabbage looper) infested compound-treated leaf assessed as reduction in feeding damage at 3341 mg a.i/L after 48 hr by leaf disk assay relative to untreated control; parameters: scale not given: the % may be the effect or the level left
# Plutella xylostella [8] = assay: Antifeedant activity against third-instar larval stage of Plutella xylostella (diamondback moth) infested compound-treated leaf assessed as reduction in feeding damage at 3341 mg a.i/L after 48 hr by leaf disk assay relative to untreated control; parameters: scale not given: the % may be the effect or the level left
smiles,measurement,setting,value
CNC(=O)ON=C(C)SC [METHOMYL],Time,Plutella xylostella [1],3.6 min
same,Time,Helicoverpa zea [2],3.8 min
same,Activity,Spodoptera exigua [3],99.8%
same,Time,Spodoptera exigua [4],5.9 min
same,Activity,Helicoverpa zea [5],99.7%
same,Time,Trichoplusia ni [6],4.2 min
same,Activity,Trichoplusia ni [7],99.9%
same,Activity,Plutella xylostella [8],98.5%
